Like-named read-outs stand apart in the source and are kept apart here.

The values that follow come from EP0470325A1, “Composition and method to keep under control the reproduction rate of vertebrate animals by means of a composition containing peripheral dopamine agonists” (priority 1990, dated 1992).

One series has as its system adult female rats. Description: fertility of adult female rats treated before mating. The settings on record: 25 mcg/kg b.w./day per os for 10 days before mating. In kind it is in vivo.
In a further series the test system is rats. The note with it: oral route, cited from earlier work.
The test system of a further series is young female rats. Kind of series: onset of sexual maturity in young female rats at impuberal stage. The note with it: 25 mcg/kg body weight/day per os. In kind it is in vivo.
A further series has as its system mice. The settings on record: oral route, cited from earlier work.
The next series concerns pregnant rats. Description: gestation of treated pregnant rats. It is filed as in vivo. The settings on record: 25 mcg/kg b.w./day per os, control rats had normal delivery.
The next series relates to prolactin incretion. Kind of series: inhibiting action on prolactin incretion after a single oral dose. In kind it is in vivo. The settings on record: single oral dose of 100 mcg/kg b.w., female rats, time after treatment. As for the experimental part: At a single oral dose of 100 micrograms per kg body weight (100 mcg/kg b.w.) in female rats, the inhibiting action on the prolactin incretion remains remarkably high more than 72 hours after treatment.

Series [1] concerns adult female rats (Sprague Dawley). Kind of series: pup weight and starvation during lactation of treated mother rats. In kind it is in vivo. How it is done: 15 adult female rats (Sprague Dawley) at their second delivery were randomly divided into 3 groups of 5 animals each. One group served as control, the other two groups were treated with different dosages of cabergoline: animals of the former group received it at the dose of 25 mcg/kg b.w./day; animals of the latter one received it at the dose of 100 mcg/kg b.w./day, starting from the day following the delivery.
Cabergoline was administered with a pellet of standard feed for breeding rats (Altromin MT@ of the firm Rieper, Bolzano). After complete consumption of the medicated pellet, food and water were made available "ad libitum".
At the dose of 100 mcg/kg b.w./day 100% of pups starved already within the first week of lactation (see Table 1).

Regarding `C=CCN1C[C@H](C(=O)N(CCCN(C)C)C(=O)NCC)C[C@@H]2c3cccc4[nH]cc(c34)C[C@H]21` [cabergoline, 1-ethyl-3-(3'-dimethylaminopropyl)-3-(6'-allylergoline-8'β-carbonyl)-urea], the fertility result in the series with adult female rats is “completely inhibited”. In addition, the figures for the LD50 in the series on rats (female rats (second value of 'respectively')) and with rats (male rats (first value of 'respectively')) were 350 mg/kg b.w and 400 mg/kg b.w, respectively. Also, in the series on young female rats, the “onset of the sexual maturity” value is “remarkably delayed”. Further, the “LD50 (Lethal Dose 50)” value with mice (female mice) is given as 200 mg/kg b.w; in the series on mice (male mice), 350 mg/kg b.w. For the same molecule, the gestation result in the series with pregnant rats was “interrupted their gestation after about ten days”. Also, the “time for which the inhibiting action on the prolactin incretion remains remarkably high” value with prolactin incretion was “more than 72 hours”. Further, the “Pups mean weight (in grams) at lactation days 7th” value in series [1] (25 mcg/kg b.w./day to the mother, 7th day of lactation, mean ± SD) was 7.9 ±1.6 grams. Also, in series [1] (25 mcg/kg b.w./day to the mother, 14th day of lactation, mean ± SD), the “Pups mean weight (in grams) at lactation days 14th” value is listed as 10.5 ±0.5 grams. Moreover, the dead pups is 40 in series [1] (25 mcg/kg b.w./day to the mother, 14th day of lactation, of 63 pups) and “- (65 dead)” in series [1] (100 mcg/kg b.w./day to the mother, 7th day of lactation, of 65 pups). Besides, in series [1] (25 mcg/kg b.w./day to the mother, 21st day of lactation, mean ± SD), the “Pups mean weight (in grams) at lactation days 21st” value was 14.7 ±0.7 grams. In series [1] (25 mcg/kg b.w./day to the mother, at the 7th, 14th and 21st day of lactation), the “body weight increase of the pups” value is “remarkably reduced”. In addition, the pups starved entry in series [1] (25 mcg/kg b.w./day to the mother, within the second week of lactation) was “about 60%”; in series [1] (100 mcg/kg b.w./day to the mother, within the first week of lactation), 100%.
